# Source: patent US20130012479A1, “POLYMORPHS OF 6-(PIPERIDIN-4-YLOXY)-2H-ISOQUINOLIN-1-ONE HYDROCHLORIDE” (SANOFI, priority 2011, published 2013)
# Entries after “also recorded” stand apart in the source; their conditions may differ. Counter-ions that a name gives are not always drawn.
# Key:
# Assay type in all cases: physicochemical
# [1] = Temperature-resolved XRPD, DSC and TGA on heating; conditions: for solid-solid transition prior to melting: on heating
# Method: In this temperature range, transformation to phase 3 was observed as determined by XRPD.
# (§1) All X-ray powder diffraction was performed with Stoe Stadi-P transmission diffractometers using CuKα1 radiation (Lambda is 1.54060 Angström). For room temperature powder diffraction, linear position sensitive detectors were used while for temperature-resolved XRPD image plate position sensitive detectors (IP-PSDs) were used. Unless stated otherwise, X-ray powder diffraction was performed at room temperature. Dry samples were investigated in a flat preparation whereas suspensions were investigated in quartz glass capillaries. The measured data were evaluated and plotted with the Software WinXPOW V2.12.
# The thermogravimetric analyses were performed with a METTLER TGA851e (module TGA/SDTA851e/SF1100/042). 100 μl Al crucibles sealed with lid were used. The sample changer punches a pinhole into the lid immediately before the start of the measurement. The oven cell is purged with a nitrogen gas flow of about 50 mL/min. The measurements typically start with a hold time of about 25 min at 25° C., followed by heating of the sample with a rate of 10°/min.
# All DSC measurements were performed with a Mettler DSC822e (module DSC822e/700/109/414935/0025). If not indicated differently, 40 μl Al crucibles with sealed lid and hole were used. All measurements were carried out in a nitrogen gas flow of 50 mL/minute. The heating rate was 10° C./minute unless indicated otherwise. Temperature and heat flow were calibrated via the melting peak of an indium reference
# [2] = Dynamic vapor sorption (DVS) water vapor sorption and desorption isotherms; conditions: 25° C.
# Method: Moreover, the dihydrate may also be characterized by its DVS (dynamic vapor sorption) water vapor sorption and desorption isotherms measured at 25° C. as shown in FIG. 3. Before starting the sorption cycle the dihydrate sample is treated with dry nitrogen gas resulting in a transformation into phase 2 as shown by humidity resolved XRPD. […] A weight loss starts below 20% relative humidity and becomes strong below 10%, especially below 5%. The change in mass at low relative humidity is completely reversible and when the humidity increases again, the rehydration proceeds rapidly with small samples. However, for bulk samples rehydration of over-dried samples can take considerably longer and rehydration may require several days. Almost identical water sorption and desorption isotherms are observed at 40° C.
# Moreover, phase 3 may also be characterized by its DVS (dynamic vapor sorption) water vapor sorption and desorption isotherms measured at 25° C. […] With decreasing humidity the dihydrate converts back at low humidity (below about 10% r.h.) into phase 2 (cycle 1, desorption). Phase 2 then converts into the dihydrate with increasing humidity and along the same isotherm it converts back with decreasing humidity into polymorph 2 (cycle 2, see also FIG. 3)
# Moisture sorption/desorption isotherms were recorded on a DVS-1 from Surface Measurement Systems. […] Typical total measurement times for both cycles are about 20-30 hours.
# [3] = Humidity-controlled (humidity-resolved) XRPD in a humidity chamber; conditions: for time until transformation into the dihydrate at 95% relative humidity: sample held at 95% r.h.
# Method: When humidity-controlled XRPD was performed at 25 and 40° C., widely identical results were obtained.
# Exposure to elevated humidity causes transformation to the dihydrate as determined with humidity-controlled XRPD performed at 25° C. […] Phase 1 transformed into the dihydrate after about 15 min at 95%, which in turn changed to phase 2 after about 40 min at 2% r.h.
# Exposure to elevated humidity causes transformation to the dihydrate as determined by humidity-controlled XRPD at 25° C. […] As a result phase 3 transformed into the hydrate after about 30 min at 95%, which in turn changed to phase 2 after about 30 min at 2% r.h.
# Exposure to elevated humidity causes transformation to the dihydrate as determined by humidity-controlled XRPD. […] As a result phase 4 transformed into the dihydrate after about 15 min at 95%, which in turn changed to phase 2 after about 20 min at 2% r.h.
# as §1
# [4] = Storage under usual storage conditions (25° C./65% relative humidity)
# Text: Moreover, the corresponding amorphous material is hygroscopic and the water content varies much stronger with the relative humidity compared to the dihydrate. This water uptake and variability in water content makes precise dosing during drug product manufacturing difficult. […] Accordingly, the crystalline dihydrate is therefore the preferred solid form for drug product manufacturing.
# [5] = Maturation experiments (slurry conversion) of suspensions; conditions: for solid phase after maturation: 20° C., 35 days; for relative stability of the phase from maturation experiments: suspensions of phase mixtures in dry organic solvents, temperature range from 0 to 40° C.
# Method: By maturation experiments (slurry conversion) at the given temperature the relative stability of the polymorphs of compound (I) and the hydrate was investigated.
# The following maturation experiment was performed by stirring the suspension under the specified conditions, starting from the dihydrate. The sample was investigated by XRPD in suspension, after vacuum filtration as well as after drying over night at 40° C. in vacuum (<50 mbar). The isolated material was also investigated by DSC and TGA.
# a) Maturation of 0.210 g dihydrate of compound (I) in 0.4 mL of water at 20° C. for 35 days. Similar, maturation of the dihydrate was done in water/methanol (vol/vol 1:1) and in water/ethanol (vol/vol 1:1).
# The following maturation experiments were performed by stirring the suspension under the specified conditions and isolating the solid by vacuum filtration, starting from dihydrate of compound (I). The sample was investigated by XRPD in suspension, after vacuum filtration as well as after drying. The isolated material was also investigated by DSC and TGA.
# (b) Maturation of 0.203 g of dihydrate of compound (I) in 1.2 mL of methanol at 20° C. for 35 days. (c) Maturation was also done as in (b) by using ethanol, 1-propanol or 2-propanol.
# The following maturation experiments of suspensions of phase mixtures of the dihydrate of compound (I) and phases consisting of polymorphs 1, 3 and 4 were performed at 0, 20 and 40° C. The product was isolated by vacuum filtration and analyzed after drying.
# e) Maturation of a mixture of 0.3 mg phase 1, 23.9 mg phase 3, 29.9 mg phase 4 and 27.9 mg of the dihydrate in 0.7 mL 2-propanol at 0° C. for 2 weeks. f) Maturation of a mixture of 0.3 mg phase 1, 27.2 mg phase 3, 18.1 mg phase 4 and 29.6 mg of the dihydrate in 2.0 mL 2-butanol at 0° C. for 2 weeks. g) Similar experiments as in e) and f) were done with corresponding mixtures of phase 1, phase 3, phase 4 and the dihydrate in 2-propanol and 2-butanol at 20° C. and at 40° C., respectively
# [6] = Drying of the dihydrate, retention of crystal structure; conditions: dihydrate dried
# Text: In a further embodiment of the hydrate the water content is 11.4% (w/w). In a further embodiment the hydrate contains 2.0 molecules water per molecule (I). Although the hydrate phase typically contains about 10-12.5% water it can also occur with lower water content. The crystal structure of the hydrate remains even if the dihydrate is dried and the remaining water content is down to about 3%. Water uptake is reversible if humidity in the environment is raised again. The water content in the isolated product depends on the drying conditions used during work up of the hydrate after crystallisation.
# [7] = Stability of the solvate outside the mother liquor; conditions: in the presence of humidity starts to transform to the hydrate
# Text: Thus, a further aspect of the present invention relates to the use of the methyl acetate solvate of compound (I) for the production of the hydrate, for example by subjecting it to conditions, such as an elevated temperature and/or humidity which facilitate the loss of methyl acetate and attracting water.
# [8] = Suspension in water, phase transformation
# Method: (§2) Also storage of phase 3 at 20° C. and 75% relative humidity caused complete conversion to the dihydrate within 3 weeks. The rate of conversion correlates with the relative humidity. When suspended in water, complete transformation into the dihydrate was observed almost immediately (<10 min).
# [9] = Storage at 20° C. and 75% relative humidity
# Method: Also storage of phase 1 at 20° C. and 75% relative humidity caused complete conversion to the dihydrate within 3 weeks. The rate of conversion correlates with the relative humidity.
# as §2
# Also storage of phase 4 at 20° C. and 75% relative humidity caused complete conversion to the dihydrate within 3 weeks. The rate of conversion apparently correlates with the relative humidity.
# [10] = listed as phase 1, hydrochloride
# [11] = listed as phase 3, hydrochloride
# [12] = listed as phase 4, hydrochloride
structure (smiles),measurement,setting,value
"O=c1[nH]ccc2cc(OC3CCNCC3)ccc12 [1,4-dioxane solvate, 6-(Piperidin-4-yloxy)-2H-isoquinolin-1-one hydrochloride×0.5 1,4-dioxane solvate]",stability of the solvate on heating,[1],relatively stable
"O=c1[nH]ccc2cc(OC3CCNCC3)ccc12 [amorphous material, 6-(Piperidin-4-yloxy)-2H-isoquinolin-1-one hydrochloride]",hygroscopicity / water content as a function of relative humidity,[2]; hydrochloride,hygroscopic
"O=c1[nH]ccc2cc(OC3CCNCC3)ccc12 [dihydrate, 6-(Piperidin-4-yloxy)-2H-isoquinolin-1-one hydrochloride dihydrate]",relative humidity at which reversible transformation into phase 2 was observed,[3]; 25 and 40° C.,2%
same,time until the dihydrate changed to phase 2 at 2% r.h.,"[3]; sample held at 2% r.h., hydrochloride dihydrate",about 30 min
same,relative humidity below which the dihydrate converts into phase 2,"[2]; cycle 1, desorption",below 10%
same,relative humidity below which weight loss starts,[2]; desorption cycle,below 20%
same,hygroscopicity / water content as a function of relative humidity,[2]; hydrochloride dihydrate,quite constant water content
same,water content in the desorption cycle,[2]; relative humidities between 95% and 20%,almost constant
same,stability under usual storage conditions,[4],stable for more than two years
same,decomposition on storage,[4]; more than two years,no detectable decomposition
same,solid phase after maturation,"[5]; 2-butanol, after drying",Polymorph 4 was obtained
same,solid phase after maturation,"[5]; methanol, ethanol, 1-propanol or 2-propanol",polymorph 3 was obtained
same,solid phase after maturation,"[5]; water, water/methanol (1:1) or water/ethanol (1:1)",remained as dihydrate
same,temperature below which the form is stable,[1],below 90 °C
same,temperature at which transformation to phase 3 starts,"[1]; temperature-resolved XRPD, on heating with loss of water",about 90 °C
same,remaining water content down to which the crystal structure of the hydrate remains,[6],about 3%
"O=c1[nH]ccc2cc(OC3CCNCC3)ccc12 [methyl acetate solvate, 6-(Piperidin-4-yloxy)-2H-isoquinolin-1-one hydrochloride]",stability of the solvate outside the mother liquor,[7],only moderately stable
"O=c1[nH]ccc2cc(OC3CCNCC3)ccc12 [polymorph 1, 6-(Piperidin-4-yloxy)-2H-isoquinolin-1-one hydrochloride]",time until transformation into the dihydrate at 95% relative humidity,"[3]; listed as Phase 1, hydrochloride",about 15 min
same,relative stability of the phase from maturation experiments,[5]; [10],only a metastable polymorph
same,solid-solid transition prior to melting,[1]; [10],melted without preceding solid-solid transitions; also recorded: No transformation into another crystalline phase
"O=c1[nH]ccc2cc(OC3CCNCC3)ccc12 [polymorph 2, 6-(Piperidin-4-yloxy)-2H-isoquinolin-1-one hydrochloride]",solid-solid transition prior to melting,"[1]; listed as phase 2, hydrochloride",melted without preceding solid-solid transitions
"O=c1[nH]ccc2cc(OC3CCNCC3)ccc12 [polymorph 3, 6-(Piperidin-4-yloxy)-2H-isoquinolin-1-one hydrochloride]",time until transformation into the dihydrate at 95% relative humidity,[3]; [11],about 30 min
same,relative humidity above which the phase changed into the dihydrate,"[2]; cycle 1, sorption",above 80%
same,relative stability at low relative humidity,"[5]; at and around room temperature, less than about 10% relative humidity",the most stable phase
same,relative stability of the phase from maturation experiments,[5]; [11],the most stable anhydrous phase; also recorded: thermodynamically most stable anhydrous form
same,solid-solid transition prior to melting,[1]; [11],melted without preceding solid-solid transitions; also recorded: No transformation into another crystalline phase
same,time to complete transformation into the dihydrate when suspended in water,[8],< 10 min
"O=c1[nH]ccc2cc(OC3CCNCC3)ccc12 [polymorph 4, 6-(Piperidin-4-yloxy)-2H-isoquinolin-1-one hydrochloride]",time until transformation into the dihydrate at 95% relative humidity,[3]; [12],about 15 min
same,time to complete conversion to the dihydrate on storage,[9],≤ 3 weeks
same,relative stability of the phase from maturation experiments,[5]; [12],only a metastable one
same,solid-solid transition prior to melting,[1]; [12],"No transformation into another crystalline phase 1, 2 or 3; also recorded: melted without preceding solid-solid transitions"
